Reference: patent US7968575B2, “Nitric oxide donors and uses thereof” (priority 2004, dated 2011)

Legend:
c-GMP [1] = assay: Cyclic-GMP measurement in aortic rat tissue (radioimmunoassay); assay type: cell-based; conditions: rat thoracic aorta, summary of Table 5; in words
Experimental: GTN (10^−6 M) was added to the chamber and, 1 minute after exposure to the drug, rings (usually 3-5) were taken, wrapped with aluminum foil and immediately frozen in liquid nitrogen for storage. Control sample group was treated with the vehicle solution only. At the time of analysis, rings were thawed, blotted over a dry gauzed and weighted. A known weight of tissue was homogenized in 2 ml ice-cold modified Hank's balanced salt solution containing (in gram/liter) NaCl 8; KCl 0.4; glucose 1; KH2PO4 0.06; Na2HPO4 0.047; Phenol red 0.017 and further containing 25 mM EDTA (disodium salt). The homogenate was centrifuged at 4000 g (force units) for 10 minutes at 2-4° C. and the supernatant was thereafter transferred into fresh pre-cooled test tube containing 1 ml of acetonitrile. The tubes were vortex mixed for a few seconds and subsequently centrifuged at 4000 g for 5 minutes at 2-4° C., to remove the precipitated protein. Each supernatant was transferred into a clean test tube and evaporated to dryness under a stream of nitrogen at 55° C. The dry residue was reconstituted with 10 volumes of Tris-EDTA buffer pH 7.5 (0.05 M Tris containing 4 mM EDTA). Aliquots of 100 μl of the reconstituted solution in duplicate were used for c-GMP measurements using Amersham RIA kit, as is described in Haj-Yehia & Benet [Pharmacology, 1995, 273, 1, pp. 94-100]. Standard curves were plotted with six concentrations (0, 0.5, 1, 2, 4 and 8 pmoles of c-GMP per tube).
The NO-tolerance effect of GTN and NO-donor compounds according to the present invention was measured by following the production of c-GMP in slices of thoracic aorta of rats. Thus, the production of c-GMP was measured as described in the methods section above for the reference NO-donor compound GTN, and for the NO-donors of the present invention Pet-2, Pet-3, Pet-7, Pet-8, Pet-10, Pet-12, Pet-24, Pet-59, Pet-147, Pet-149, Pet-152, Pet-154 and Pet-155.

c-GMP [2] = assay: Induction of in vivo nitrate tolerance (cGMP in aorta isolated after 16 hour infusion); design: species or system rat; conditions: in words
Experimental: For c-GMP levels and tolerance development, the rat's thoracic aorta was isolated after exposure to the tested compound in vivo, and measured as described above in the in vitro assays.
Male Sprague Dawley rats (220 to 250 grams) were housed under constant temperature and humidity conditions. Light was maintained at a 12/12 light dark cycle. Except for 12 hours before the experiment, when food fasting was initiated, all rats had free access to standard rat pellet diet and tap water. The animals were anesthetized by intraperitoneal injection of ketamine and xylazine combination (50 and 10 milligram per kilogram, respectively). […] The catheters were filled with normal saline solution containing 1000 IU/ml of heparin and plugged with a metal pin. Catheters were externalized to the back of the neck region and secured by a polyester felt disk.
After implantation, the rats were individually housed until they regained their preoperative weight and appeared healthy (3 to 4 days post-operation). At this time point (day 0), an osmotic mini-pump (Alza Corp., Palo Alto, Calif.) delivering constant volume (10 μl/hour) of vehicle or drug was connected to one of the intravenous catheters.
For inducing tolerance to the tested NO-donor according to the present invention, the animals received 200 μg/hour of the tested compound for 16 hours (short-term-induced tolerance). A similar number of animals were processed by the same surgical procedure and received the vehicle alone (10 μl/hour of a solution consisting of 30% ethanol and 30% propylene glycol in sterile distilled water for injection).
At the end of the infusion periods used for the development of tolerance (16 hour), the rats were anesthetized as described above, the two catheters were externalized and the delivering catheters were disconnected from the mini-pump. The abdomen was opened by midline incision and the thoracic aorta were isolated, washed and cleaned from the surrounding tissues. Strips of the treated aortas were pooled in chambers containing Krebs-Hanseliet buffer (10 ml), and exposed to 1 μM of the tested NO-donor (final concentration) for 120 seconds. The tissues were quickly collected and frozen in liquid nitrogen for cGMP measurement, described hereinabove.

isolated rat aorta = assay: In vitro induction of tolerance: vasorelaxation of aortic rings pre-exposed to the NO-releasing compound; assay type: cell-based; conditions: vasorelaxation in rings pre-treated with 0.44 mM of the compound versus control rings; in words
Experimental: Aortic rings were prepared as described hereinabove, and were exposed to 0.44 mM GTN (vehicle was water:ethanol:propyleneglycol at proportional ratio of 1:1:1) for 1 hour before CCRC construction, to thereby induce tolerance to nitroglycerine. At the end of the tolerance induction period, rings were thrice washed with the path buffer (Krebs-bicrbonate) every 15 minutes for the following hour and then CCRC for vasorelaxation on GTN-induced tolerance rings were constructed for GTN (pretreated versus untreated rings, FIG. 15), in order to verify the ability to induce and measure GTN tolerance induction in vitro
Attempted induction of tolerance to the NO-donating compounds of the present invention was performed under the same conditions as for GTN. Thus, in an exemplary experiment, rings were exposed to 0.44 mM solution of Pet-3 in the attempt to induce tolerance for Pet-3. CCRC were then measured for the vasorelaxing effect of Pet-3 on a group of rings which were pre-exposed to Pet-3 as to induce tolerance to Pet-3, and for an untreated control group. The above protocol was repeated with Pet-2, Pet-7, Pet-8, Pet-12, Pet-24, Pet-43, Pet-149 and Pet-152.

[3] = system: anesthetized hypertensive Sprague-Dawley male rats; assay: Hypotensive effects: mean arterial pressure after iv bolus; assay type: in vivo, rat; conditions: rats pre-treated with phenylephrine, iv bolus doses; in words
Experimental: Mean arterial pressure (MAP) was monitored and determined during bolus infusion of Pet-2, Pet-3, Pet-7, Pet-8, Pet-12 and Pet-13. Briefly, polyethylene catheters (PE50) were inserted into the carotid artery and into the jugular vein of anesthetized hypertensive Sprague-Dawley male rats (200-300 grams). A blood pressure recorder was placed within the carotid artery. Phenylephrine (0.1 mg) was then injected and the mean arterial blood pressure (MABP) was monitored continuously until a stable baseline was reached. The hypotensive effects of intravenous (iv) bolus doses (0.1 mg of each tested compound) administered intravenously at the jugular vein in minimal volume of vehicle (0.2 ml per dose) were evaluated. Five minutes were allowed between each dose, during which the maximal decrease in MAP was recorded and a dose-response graph comparing the hypotensive effect of the compounds was constructed.

SMILES: O=[N+]([O-])OCC(CO[N+](=O)[O-])O[N+](=O)[O-] [GTN, glyceryl trinitrate, reference compound]
- c-GMP level following a repeated treatment (c-GMP [1]): significantly reduced
- level of cGMP following a repeated treatment in vivo (c-GMP [2]; aorta of rats infused 200 μg/hour for 16 hours, then exposed to 1 μM compound for 120 seconds): decreased
- tolerance induction in vivo (c-GMP [2]; cGMP accumulation in isolated aorta of rats pre-treated in vivo with the compound): tolerance inducing effect
- tolerance induction in vitro (isolated rat aorta): tolerance induced
- hypotensive effect on MAP following successive administrations [3]: attenuation
